Data from patent US20100215759A1 (priority 2009, published 2010).

Assays:
CB1 receptors = biological target: T1, CB1 receptors (Mus musculus, UniProt P47746); assay: biochemical; assay type: binding
T1 construct: the complete brain (excluding the cerebellum) and the spleen were quickly dissected and kept in ice; from tissue; host or cells: mouse brain (excluding cerebellum), membrane preparation
Experimental: (§1) The affinity of the synthesized compounds towards the CB1 and CB2 cannabinoidergic receptors was evaluated in vitro by radioreceptor binding studies using the method reported hereinunder.
(§2) The technique of the receptor binding allows to establish if, and with which affinity and specificity, a specific compound binds to a particular receptor. To evaluate the affinity of a specific compound to a particular receptor it is necessary to challenge in a particular tissue preparation wherein those specific receptors are present the compound to be tested with a radioactive labelled compound whose affinity for the same receptors is known. […] The amount of radioactivity present in the receptor-compound complex allows furthermore to estimate with great accuracy the amount of compound bound to the receptor. By said method it is therefore possible to establish quickly the affinity of a new compound towards a specific receptor and thus to determine its pharmacological activity. With the same experimental protocol it is possible to evaluate the affinity of the compound towards other receptors and thus establish its specificity degree toward said other receptors.
(§3) The food and water were ad libitum.
(§4) The procedure adopted, based on the use of the compound [^3H]-CP-55,940 (New England Nuclear, Boston, Mass., USA), requires the use of the mouse brain as biological tissue for the evaluation of the affinity towards the CB1 receptors and of the mouse spleen for the affinity assay for the CB2 receptors.
(§5) The animals were sacrificed by cervical dislocation and the complete brain (excluding the cerebellum) and the spleen were quickly dissected and kept in ice.
(§6) The tissue was homogenized in 15 volumes (weight/volume) of TME buffer (50 Mm Tris, 1 mM EDTA and 3 mM MgCl2, pH 7.4) by an Ultra-Turrax and subsequently centrifuged for 10 minutes at 1086×g in a centrifuge refrigerated at 4° C. The recovered supernatant was centrifuged at 45,000×g for 30 minutes at 4° C. by using a Beckman SW41 rotor and the obtained pellet was resuspended in 50 volumes of TME.
(§7) The thus obtained membranes (50-80 μg of proteins) were incubated in the presence of 1 nM of [^3H]-CP55.940 for 1 hour at 30° C. in a final volume of 0.5 ml of TME buffer containing 5 mg/ml of bovine serum albumin (BSA). The non specific binding was measured in the presence of CP55.940 at a 1 μM concentration.
(§8) All the experiments were carried out in polypropylene test tubes pretreated with Sigma-Cote (Sigma Chemical Co. Ltd., Poole, UK) for reducing non specific binding.
(§9) In order to determine the competitive inhibition binding curves, eight different concentrations of each compound were used.
(§10) Incubation was stopped by addition of TME buffer (at 4° C.) containing 5 mg/ml of BSA, and subsequent filtration under vacuum by Whatman GFC filters pretreated with 0.5% of polyethylamine (PEI) and by using a filtering device (Brandell, Gaithersburg, Md., USA). The filters were washed 3 times with […] of Tris HCl buffer (pH 7.4, 4° C.) containing 1 mg/ml of BSA and separately placed in plastic vials containing 4 ml of scintillating liquid (Ultima Gold MV, Packard).
(§11) The radioactivity present in the filters was determined by a scintillator spectrophotometer (Tricarb® 2100, Packard, Meridien, USA).
(§12) Protein determination was carried out by the Bradford method by using the protocol and the reactants supplied by Bio-Rad (Milano, Italy).

CB2 receptors = biological target: T2, CB2 receptors (Mus musculus, UniProt P47936); assay: biochemical; assay type: binding
T2 construct: the complete brain (excluding the cerebellum) and the spleen were quickly dissected and kept in ice; from tissue; host or cells: mouse spleen, membrane preparation
Experimental: as §1, §2, §3, §4, §5, §6, §7, §8, §9, §10, §11, §12

old DBA/2J mice = assay: Reduction of intraocular pressure (IOP) after application to the eye, TONOLab tonometer; assay type: in vivo; details: for Intraocular Pressure Decrease: versus basal IOP; for Reduction of intraocular pressure: dose 100 μg
Source text: The main risk factor in the glaucoma is represented by the high intraocular pressure (IOP). See for instance: Libby R. T. et al., Vis Neurosci. 2005 Sep.-Oct., 22(5):637-48 and Tomida I. et al., Br. J. Opthalmol. 2004 May, 88(5):708-13.
By using the animal model of old DBA/2J mice (see above) it has been evaluated the efficacy of the compound obtained in example 3.1 in reducing the IOP. As said, this compound has a good affinity towards the CB1 receptors in vitro (example 4) and a CB1 agonist action in vivo (example 5). The intraocular pressure has been determined by a TONOLab Tonometer (Tiolat Oy), as reported by M. E. Pease et al. in J. Glaucoma, 2006 December, 15(6):512-519. The compound was dispersed in the commercial emulsion Tocrisolve™, (Tocris), at a concentration of […] and applied to the eye of old DBA/2J mice (8-10 month age; basal IOP comprised between 19.0 and 22.5 mmHg). The applied emulsion volumes were such that the compound doses resulted, respectively, of 100 μg or 50 μg. WIN 55212-2 was dispersed in Tocrisolve™at the concentration of 5 mg/ml and was the reference cannabinoidergic compound. The determination of the ocular pressure was carried out every 30 minutes up to two hours starting from the administration. The obtained results (average of 6 measurements at each time for experimental groups of 8-10 animals for group/dose) are reported in Table 3. IOP decrease was expressed in percent with respect to the basal value.

[1] = tested on: mouse deferent vessel (vas deferens); assay: Ex-vivo model: electrically induced contractions of the isolated deferent vessel (vas deferens); design: species or system albino CD1 mice; details: for Activity compared with the compounds of the invention: FIG. 2; for Inhibition of the contractions induced by the electric stimulus: concentrations lower than or equal to 1×10^−6 M
Source text: The use of the isolated deferent vessel organ, as a highly sensitive basic system in an ex-vivo model for evaluating the activity of agonist CB1 compounds, has been described by Pertwee et al. in Br. J. Pharmacol., 105:980-4, 1992. This model has been used also to evaluate the properties of antagonist CB1 compounds and to distinguish antagonist CB1 derivatives from inverse agonist CB1 compounds (Rinaldi-Carmona et al., FEBS Lett., 350:240-4, 1994; Pertwee et al., Eur. J. Pharmacol., 456:99-106, 2002). […] This effect is correlated to the action on the prejunctional neuronal CB1 receptors with the consequent release inhibition, induced by electric stimuli, of contractile neurotransmitters (noradrenaline and ATP) (Schlicker and Kathmann, Trends Pharmacol. Sci., 22:565-72, 2001). The inhibition of the contractions induced by the electric stimulus on the deferent vessel in the presence of agonist (or partial agonist) CB1 compounds are expressed as % of contraction inhibition. Said % contraction inhibition is calculated by the ratio between the contraction amplitude determined in the presence of a given concentration of the compound and that detected in its absence (basal value). The curve of the “% of contraction inhibition” as a function of the logarithm of the concentration of agonist (or partial agonist) CB1 compounds, is sigmoidal. The use of the model for the evaluation of antagonist CB1 compounds is based on the evaluation of their efficacy in inhibiting the action of the deferent vessel of agonist (or partial agonist) CB1 compounds. The inhibition is expressed by a shifting towards the right of the curves % of inhibition of contractions/logarithm of the concentration of the agonist CB1 compound, with increasing the concentration of the antagonist CB1 compound.
As reported in the literature, the experimentation has been carried out by using albino CD1 mice weighing 30-40 grams. The mice deferent vessel was recovered and transferred into an instrument for separated organs supplied by the Firm Ugo Basile (Comerio, Italy). The initial tension was of 0.5 g. The procedure adopted is reported in Pertwee et al. in Br. J. Pharmacol., 110:1483-1490, 1993. In particular the procedure and instruments as described by S. Ruiu et al. in J.P.E.T., Vol. 306, 2003, 363-370, have been used.
In a subsequent experiment it was shown that the compound activity was antagonized by the antagonist CB1 compound N-piperidinyl-[8-chloro-1-(2,4-dichlorophenyl)-1,4,5,6-tetrahydrobenzo[6,7]cyclohepta[1,2-c]pyrazol-3-carboxamide], described by S. Ruiu et al. in J.P.E.T., Vol. 306, 2003, 363-370. The experiment was carried out by adding the antagonist (concentration in bath 1 nM) 20 minutes before the first addition of the compound of the invention.

patients = details: cited from earlier work
[2] = 50 μg to the eye in Tocrisolve, 30 minutes
[3] = 50 μg to the eye in Tocrisolve, 60 minutes
[4] = 50 μg to the eye in Tocrisolve, 90 minutes
[5] = 50 μg to the eye in Tocrisolve, 120 minutes
[6] = 100 μg to the eye in Tocrisolve, 30 minutes
[7] = 100 μg to the eye in Tocrisolve, 60 minutes
[8] = 100 μg to the eye in Tocrisolve, 90 minutes
[9] = 100 μg to the eye in Tocrisolve, 120 minutes

T2 sequence (P47936 whole entry): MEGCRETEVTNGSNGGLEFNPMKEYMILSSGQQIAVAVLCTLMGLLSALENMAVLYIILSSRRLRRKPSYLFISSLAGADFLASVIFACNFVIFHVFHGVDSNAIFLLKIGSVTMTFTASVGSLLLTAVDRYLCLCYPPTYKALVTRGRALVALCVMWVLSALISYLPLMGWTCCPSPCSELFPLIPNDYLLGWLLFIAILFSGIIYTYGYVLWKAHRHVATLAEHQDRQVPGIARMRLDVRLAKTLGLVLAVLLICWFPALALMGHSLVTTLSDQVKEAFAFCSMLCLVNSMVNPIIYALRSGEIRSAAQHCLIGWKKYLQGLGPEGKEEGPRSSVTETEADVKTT
T1 sequence (P47746 whole entry): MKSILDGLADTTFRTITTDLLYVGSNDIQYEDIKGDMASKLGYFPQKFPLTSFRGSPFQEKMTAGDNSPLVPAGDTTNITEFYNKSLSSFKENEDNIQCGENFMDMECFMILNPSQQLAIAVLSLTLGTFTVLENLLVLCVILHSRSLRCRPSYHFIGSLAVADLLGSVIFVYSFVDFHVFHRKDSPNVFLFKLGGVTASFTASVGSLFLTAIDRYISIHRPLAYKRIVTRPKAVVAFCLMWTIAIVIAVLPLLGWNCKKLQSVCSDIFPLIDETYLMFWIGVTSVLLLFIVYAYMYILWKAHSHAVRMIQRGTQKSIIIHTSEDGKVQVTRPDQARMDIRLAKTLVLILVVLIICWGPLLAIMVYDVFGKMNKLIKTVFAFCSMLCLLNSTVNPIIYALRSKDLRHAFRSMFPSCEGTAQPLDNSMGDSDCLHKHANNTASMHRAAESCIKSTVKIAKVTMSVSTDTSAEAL

Cc1ccc(Cn2nc(C(=O)NC3CC(C)CCC3C(C)C)c3c2-c2sc(C)cc2C3)cc1 (centres unmarked) [Compound (XC), N-menthyl-6-methyl-1-(4′-methylbenzyl)-1,4-dihydro-thieno[3′,2′:4,5]cyclopenta[1,2-c]pyrazol-3-carboxamide]
Ki (CB1 receptors): 33 ± 8.2 nM | Ki (CB2 receptors): 2.5 ± 0.3 nM | Intraocular Pressure Decrease (old DBA/2J mice; [2]): 2.9% | Intraocular Pressure Decrease (old DBA/2J mice; [3]): 2.2% | Intraocular Pressure Decrease (old DBA/2J mice; [4]): 0.8% | Intraocular Pressure Decrease (old DBA/2J mice; [5]): 1.5% | Intraocular Pressure Decrease (old DBA/2J mice; [6]): 22.2% | Intraocular Pressure Decrease (old DBA/2J mice; [7]): 22.4% | Intraocular Pressure Decrease (old DBA/2J mice; [8]): 25.0% | Intraocular Pressure Decrease (old DBA/2J mice; [9]): 16.7% | Reduction of intraocular pressure (old DBA/2J mice): able to significantly reduce the intraocular pressure | Activity compared with the compounds of the invention [1]: lower than that of the compounds of the invention | Inhibition of the contractions induced by the electric stimulus [1]: able to significantly inhibit the contractions

Cc1cc2c(s1)-c1c(c(C(=O)NC3C4(C)CCC(C4)C3(C)C)nn1-c1ccc(Cl)cc1Cl)C2 (centres unmarked) [Compound (XD), N-fenchyl-1-(2′,4′-dichlorophenyl)-6-methyl-1,4-dihydro-thieno[3′,2′:4,5]cyclopenta[1,2-c]pyrazol-3-carboxamide]
Ki (CB1 receptors): 43.3 ± 5.5 nM | Ki (CB2 receptors): 15 ± 3.2 nM | Intraocular Pressure Decrease (old DBA/2J mice; [2]): 3.0% | Intraocular Pressure Decrease (old DBA/2J mice; [3]): 2.0% | Intraocular Pressure Decrease (old DBA/2J mice; [4]): 0.5% | Intraocular Pressure Decrease (old DBA/2J mice; [5]): 1.0% | Intraocular Pressure Decrease (old DBA/2J mice; [6]): 16.6% | Intraocular Pressure Decrease (old DBA/2J mice; [7]): 14.0% | Intraocular Pressure Decrease (old DBA/2J mice; [8]): 11.2% | Intraocular Pressure Decrease (old DBA/2J mice; [9]): 11.1% | Reduction of intraocular pressure (old DBA/2J mice): able to significantly reduce the intraocular pressure | Activity compared with the compounds of the invention [1]: lower than that of the compounds of the invention | Inhibition of the contractions induced by the electric stimulus [1]: able to significantly inhibit the contractions

Cc1cc2c(s1)-c1c(c(C(=O)NCC3CCC4CC3C4(C)C)nn1-c1ccc(F)cc1F)C2 (centres unmarked) [Example 3.2, N-myrtanyl-1-(2′,4′-difluorophenyl)-6-methyl-1,4-dihydrothieno[3′,2′:4,5]cyclopenta[1,2-c]pyrazol-3-carboxamide]
Ki (CB1 receptors): 22.3 ± 25 nM | Ki (CB2 receptors): 5.8 ± 1 nM

CC1(C)C2CCC(CNC(=O)c3nn(-c4ccc(Cl)cc4Cl)c4c3CCc3sc(-c5ccccc5)cc3-4)C1C2 (centres unmarked) [Example 3.6, N-myrtanyl-1-(2′,4′-dichlorophenyl)-7-phenyl-4,5-dihydro-1H-thieno[2,3-g]indazol-3-carboxamide]
Ki (CB1 receptors): 86.4 ± 20 nM | Ki (CB2 receptors): 4350 ± 251 nM

Cc1cc2c(s1)-c1c(c(C(=O)NCC3CCC4CC3C4(C)C)nn1-c1ccc(Cl)cc1Cl)C2 (centres unmarked) [Example 3.8, N-myrtanyl-1-(2′,4′-dichlorophenyl)-6-methyl-1,4-dihydro-thieno[3′,2′:4,5]cyclopenta[1,2-c]pyrazole-3-carboxamide]
Ki (CB1 receptors): 400 ± 71 nM | Ki (CB2 receptors): 30.6 ± 7.2 nM

CC1(C)C2CCC(CNC(=O)c3nn(-c4ccc(F)cc4F)c4c3Cc3cc(Br)sc3-4)C1C2 (centres unmarked) [Example 3.12, N-myrtanyl-6-bromo-1-(2′,4′-difluorophenyl)-1,4-dihydro-thieno[3′,2′:4,5]cyclopenta[1,2-c]pyrazole-3-carboxamide]
Ki (CB1 receptors): 160 ± 2.5 nM | Ki (CB2 receptors): 9.3 ± 1.5 nM

Cc1cc2c(s1)-c1c(c(C(=O)CC3CCCCC3)nn1-c1ccc(Cl)cc1Cl)C2 [Example 3.15, 1-(2′,4′-dichlorophenyl)-6-methyl-3-(1-oxo-2-cyclohexyleth-1-yl)-1,4-dihydro-thieno[3′,2′:4,5]cyclopenta[1,2-c]pyrazole]
Ki (CB1 receptors): 720 ± 139 nM | Ki (CB2 receptors): 5.4 ± 1.4 nM

Cc1c(C(=O)NN2CCCCC2)nn(-c2ccc(Cl)cc2Cl)c1-c1ccc(Cl)cc1 [SR141716A]
Reduction of weight and metabolic and/or cardiovascular risk factors (patients; patients with metabolic syndrome and/or dyslipidemia): effective in reducing both weight and metabolic and/or cardiovascular risk factors | Reduction of metabolic and/or cardiovascular risk factors (patients; patients with type 2 diabetes): effectiveness of Rimonabant in reducing metabolic and/or cardiovascular risk factors has been shown
